Results taken from patent US4613602A, “Ranitidine derivative useful in the treatment of ulcer” (Magis Farmaceutici s.r.l., priority 1984, dated 1986).

How the values were obtained:
[1] = Acute toxicity (LD50) in mouse, Lichtfield and Wilcoxon; details: in vivo, 14 days observation
Excerpt: (§1) The characteristics of high activity and of practical absence of side effects have been evaluated by studying the acute toxicity, the activity on indomethacin-induced ulcers, on gastric secretion, on histamine-inducedgastric hyperacidity, and on H2 --receptors of isolated uterus of guinea pig.
(§2) The acute toxicity has been studied on male and female mice of Swiss strain, and on albino male and female rats of Wistar strain, by administering the active principle by the oral way, by intravenous way, and by intramuscular way.
(§3) For each administering way envisaged, doses in geometrical progression have been tested.
(§4) At the end of the observation time period of 14 days, the LD50 and the related fiducial limits have been computated according to the method by Licthfield and Wilcoxon [Pharmacol. Exp. Theor., 118, 96-99 (1949)].

[2] = Acute toxicity (LD50) in rat, Lichtfield and Wilcoxon; details: in vivo, 14 days observation, read-out: DL50
Excerpt: as §1, §2, §3, §4

[3] = test system: indomethacin-induced ulcers; experiment: Anti-ulcer activity, indomethacin-induced ulcers in rat; type: in vivo; details: 25 mg/kg p.o.; for Inhibition percentage (ulcer): relative to control; for mm of ulcer: control 18.4
Excerpt: This activity has been evaluated by using the method of indomethacin-induced ulcers in rat [Bhargava, K. P., Gupta M. B. and Tangri, K. K.: European J. of Pharmacology, 22, 191-195 (1973)].
The product has been administered as dissolved in carboxymethylcellulose at 0.2% and Tween 80 at 1% concentration.

[4] = test system: gastric secretion induced by histamine; experiment: Anti-H2 activity, gastric secretion in rats in vivo induced by histamine; design: species or system rat; details: 50 mg/kg i.p.; for pH variation from the beginning of the treatment / Area: mean ± ES; for Area: control 184.93, *p ≤ 0.01, **p ≤ 0.01
Procedure: Anti-H2 activity. Gastric secretion in rats in vivo induced by histamine. The anti-secretory activity has been studied by the method by Gosh, M. N., Schild, M. O. [Brit. J. Pharmacol., 13, 54 (1958)]. | Antihistaminic anti-H2 activity, gastric secretion in rats, in vivo, | induced by histamine. | Histamine perfused into vein 200 μg/kg/min at the flow rate of 0.1 | ml/min. | Perfusion of stomach with 0.00025 N NaOH at the flow rate of 1 | ml/min.

H2-receptors = molecular target: T1, H2-receptors (Rattus norvegicus, UniProt P25102); experiment: Antagonism to histamine in isolated uterus of female rat under estrus; details: for Relaxation with histamine 10^-2 g/l, after the administration / Relaxation with histamine 10^-2 g/l, Δ: basal value 11.5
T1 construct: functional antagonism of histamine-induced relaxation
T1 sequence (P25102 whole entry): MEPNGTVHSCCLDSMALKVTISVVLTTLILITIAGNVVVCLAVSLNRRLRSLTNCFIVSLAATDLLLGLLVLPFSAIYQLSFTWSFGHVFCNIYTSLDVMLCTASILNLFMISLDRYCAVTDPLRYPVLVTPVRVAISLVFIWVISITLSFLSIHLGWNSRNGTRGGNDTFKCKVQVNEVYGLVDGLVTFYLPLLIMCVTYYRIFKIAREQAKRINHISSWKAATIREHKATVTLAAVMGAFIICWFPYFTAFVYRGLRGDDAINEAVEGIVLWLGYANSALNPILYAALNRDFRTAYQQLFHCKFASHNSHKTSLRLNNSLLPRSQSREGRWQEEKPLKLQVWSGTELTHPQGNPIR

mice and rats = experiment: Acute toxicity, overall comparison (mouse and rat); type: in vivo; details: whole of the data of Table 1
Excerpt: as §1, §2, §3, §4

gastric secretion = experiment: Therapeutical activity, overall statement; details: in vivo
[5] = im, intramuscular administering, read-out: DL50
[6] = intravenous administering, read-out: DL50
[7] = oral administering, read-out: DL50 (95 fiducial limits)
[8] = im, intramuscular administering

Row | SMILES | LD50 at 336 h [1, 5] [mg/kg] | LD50 at 336 h [1, 6] [mg/kg] | LD50 at 336 h [1, 7] [mg/kg] | LD50 at 336 h [2, 8] [mg/kg] | LD50 at 336 h ([2]; intravenous administering) [mg/kg] | LD50 at 336 h ([2]; oral administering) [mg/kg] | Inhibition percentage (ulcer) [3] [percentage] | mm of ulcer [3] [mm] | pH variation from the beginning of the treatment ([4]; 0 min) [pH] | % Δ (percent increase of area relatively to the control) [4] [%] | Area [4] [mm^2] | pH variation from the beginning of the treatment ([4]; 5 min) [pH] | pH variation from the beginning of the treatment ([4]; 10 min) [pH] | pH variation from the beginning of the treatment ([4]; 15 min) [pH] | pH variation from the beginning of the treatment ([4]; 20 min) [pH] | pH variation from the beginning of the treatment ([4]; 25 min) [pH] | pH variation from the beginning of the treatment ([4]; 30 min) [pH] | pH variation from the beginning of the treatment ([4]; 35 min) [pH] | pH variation from the beginning of the treatment ([4]; 40 min) [pH] | pH variation from the beginning of the treatment ([4]; 45 min) [pH] | other results
1 | CN(C)Cc1ccc(CSCCNC(=C[N+](=O)[O-])N2CCN(C)CC2)o1 [Methylpiperazino-ranitidine, 1-N-[2-[[5-[(dimethylamino)-methyl]-furfuryl]-thio]-ethyl]-amino-1-[4-methylpiperazino]-2-nitroethene] | 300 | 120 | 2610 | 2000 | 110 | 5500 | 85.9 | 2.6 | 8.68 | 32.84 | 245.67 | 7.21 | 5.85 | 4.62 | 4.43 | 4.39 | 4.27 | 4.06 | 4.05 | 3.97 | anti-ulcer activity compared with ranitidine [3]: same anti-ulcer activity as ranitidine; action prolonged in time, pH value from the 35th to the 60th minute [4]: from the 35th to the 60th minute the pH value remains nearly constant; pH variation from the beginning of the treatment ([4]; 50 min): 3.92 pH; pH variation from the beginning of the treatment ([4]; 55 min): 3.99 pH; pH variation from the beginning of the treatment ([4]; 60 min): 3.95 pH; Relaxation with histamine 10^-2 g/l, after the administration (H2-receptors; 6.75 × 10^-3 g/l, N° 5): 2.5; Relaxation with histamine 10^-2 g/l, Δ (H2-receptors; 6.75 × 10^-3 g/l, N° 5): 9; inhibition at 6.75 µg/mL (H2-receptors; rat, 6.75 × 10^-3 g/l, N° 5, read-out: Inhibition percentage (relaxation with histamine 10^-2 g/l)): 78.2%; toxicity compared with ranitidine (mice and rats): constantly results less toxic than ranitidine; therapeutical activity compared with ranitidine (gastric secretion): practically overlapping to that of ranitidine
2 | CNC(=C[N+](=O)[O-])NCCSCc1ccc(CN(C)C)o1 [Ranitidine, ranitidine] | 280 | 80 | 1700 | 2020 | 93 | > 5000 | 84.2 | 2.9 | 8.80 | 45.47 | 269.02 | 6.12 | 4.06 | 4.06 | 4.28 | 4.48 | 4.67 | 4.89 | 5.16 | 5.33 | pH variation from the beginning of the treatment ([4]; 50 min): 5.40 pH; pH variation from the beginning of the treatment ([4]; 55 min): 5.57 pH; pH variation from the beginning of the treatment ([4]; 60 min): 5.69 pH; Relaxation with histamine 10^-2 g/l, after the administration (H2-receptors; 5 × 10^-3 g/l, N° 5): 3; Relaxation with histamine 10^-2 g/l, Δ (H2-receptors; 5 × 10^-3 g/l, N° 5): 8.5; inhibition at 5 µg/mL (H2-receptors; rat, read-out: Inhibition percentage (relaxation with histamine 10^-2 g/l)): 73.9%
